Drawing on patent US9868738B2, “Diazine-fused amidines as BACE inhibitors, compositions, and their use” (Merck Sharp & Dohme Corp., priority 2014, dated 2018), this text covers Ki for 21 molecules.

SMILES strings stand for the structures.

Usually Ki stands for the equilibrium dissociation constant of an inhibitor or competing ligand from its target.

Test [1] deals with purified human autoBACE-2 (Homo sapiens (Human), UniProt Q9Y5Z0). Nature of the test: BACE-2 Assay (BACE-HTRF assay). It counts as biochemical. The settings on record: Ki calculated from IC50 using the Cheng-Prusoff equation; QSY7-EISEVNLDAEFC-Eu-amide substrate 200 nM, pH 5.0. How it is done:
Inhibitor IC50s at purified human autoBACE-2 are determined in a time-resolved endpoint proteolysis assay that measures hydrolysis of the QSY7-EISEVNLDAEFC-Eu-amide FRET peptide substrate (BACE-HTRF assay). BACE-mediated hydrolysis of this peptide results in an increase in relative fluorescence (RFU) at 620 nm after excitation with 320 nm light. Inhibitor compounds, prepared at 3× the desired final concentration in 1×BACE assay buffer (20 mM sodium acetate pH 5.0, 10% glycerol, 0.1% Brij-35) supplemented with 7.5% DMSO are pre-incubated with an equal volume of autoBACE-2 enzyme diluted in 1×BACE assay buffer (final enzyme concentration 1 nM) in black 384-well NUNC plates for 30 minutes at 30° C. […] DMSO is present at […] final concentration in the assay. Following laser excitation of sample wells at 320 nm, the fluorescence signal at 620 nm is collected for 400 ms following a 50 μs delay on a RUBYstar HTRF plate reader (BMG Labtechnologies). Raw RFU data is normalized to maximum (1.0 nM BACE/DMSO) and minimum (no enzyme/DMSO) RFU values. IC50s are determined by nonlinear regression analysis (sigmoidal dose response, variable slope) of percent inhibition data with minimum and maximum values set to 0 and 100 percent respectively. Similar IC50s are obtained when using raw RFU data. The Ki values are calculated from the IC50 using the Cheng-Prusoff equation.

Test [2] concerns the target soluble human BACE1 catalytic domain (Homo sapiens (Human), UniProt P56817). Nature of the test: BACE-1 Ki Assay (BACE-1 HTRF FRET Assay). Particulars: Ki calculated from IC50 using the Cheng-Prusoff equation; QSY7-APPswe-Eu substrate 200 nM, pH 5.0. It counts as biochemical. The protocol:
In another embodiment, the compounds of the invention comprise the example compounds shown in the table below, or a tautomer thereof, or a pharmaceutically acceptable salt of said compound or said tautomer. Examples 2 to 42 were prepared using the method similar to Ex. 1. Example 44 to 51 were synthesized using the method similar to Ex. 43. BACE-1 values reported in this table were measured using BACE-1 Ki Assay (BACE-1 HTRF FRET Assay).
• Reagents: Na^+-Acetate pH 5.0; 1% Brij-35; Glycerol; Dimethyl Sulfoxide (DMSO); Recombinant human soluble BACE1 catalytic domain (>95% pure); APP Swedish mutant peptide substrate (QSY7-APP^swe-Eu): QSY7-EISEVNLDAEFC-Europium-amide.
A homogeneous time-resolved FRET assay can be used to determine IC50 values for inhibitors of the soluble human BACE1 catalytic domain. This assay monitors the increase of 620 nm fluorescence that resulted from BACE1 cleavage of an APPswedish APP^swe mutant peptide FRET substrate (QSY7-EISEVNLDAEFC-Europium-amide). This substrate contains an N-terminal QSY7 moiety that serves as a quencher of the C-terminal Europium fluorophore (620 nm Em). In the absence of enzyme activity, 620 nm fluorescence is low in the assay and increased linearly over 3 hours in the presence of uninhibited BACE1 enzyme. Inhibition of BACE1 cleavage of the QSY7-APP^swe-Eu substrate by inhibitors is manifested as a suppression of 620 nm fluorescence.
Varying concentrations of inhibitors at 3× the final desired concentration in a volume of 10 ul are preincubated with purified human BACE1 catalytic domain (3 nM in 10 μl) for 30 minutes at 30° C. in reaction buffer containing 20 mM Na-Acetate pH 5.0, 10% glycerol, 0.1% Brij-35 and 7.5% DSMO. Reactions are initiated by addition of 10 μl of 600 nM QSY7-APP^swe-Eu substrate (200 nM final) to give a final reaction volume of 30 μl in a 384 well Nunc HTRF plate. The reactions are incubated at 30° C. for 1.5 hours. The 620 nm fluorescence is then read on a Rubystar HTRF plate reader (BMG Labtechnologies) using a 50 millisecond delay followed by a 400 millisecond acquisition time window. Inhibitor IC50 values are derived from non-linear regression analysis of concentration response curves. Ki values are then calculated from IC50 values using the Cheng-Prusoff equation using a previously determined […] of 8 μM for the QSY7-APP^swe-Eu substrate at BACE1.

soluble human BACE1 catalytic domain, sequence (P56817 75-416): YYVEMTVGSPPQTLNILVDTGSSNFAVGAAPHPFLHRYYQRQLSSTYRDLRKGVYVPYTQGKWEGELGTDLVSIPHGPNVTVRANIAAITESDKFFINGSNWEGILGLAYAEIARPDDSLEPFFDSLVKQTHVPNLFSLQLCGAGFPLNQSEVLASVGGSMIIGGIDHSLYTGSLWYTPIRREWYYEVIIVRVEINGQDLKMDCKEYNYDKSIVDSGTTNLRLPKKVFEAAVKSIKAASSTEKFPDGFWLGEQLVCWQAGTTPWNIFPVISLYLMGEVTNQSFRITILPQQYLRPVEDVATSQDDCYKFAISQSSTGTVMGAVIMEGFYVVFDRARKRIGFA
purified human autoBACE-2, sequence (Q9Y5Z0 63-473 limits assumed): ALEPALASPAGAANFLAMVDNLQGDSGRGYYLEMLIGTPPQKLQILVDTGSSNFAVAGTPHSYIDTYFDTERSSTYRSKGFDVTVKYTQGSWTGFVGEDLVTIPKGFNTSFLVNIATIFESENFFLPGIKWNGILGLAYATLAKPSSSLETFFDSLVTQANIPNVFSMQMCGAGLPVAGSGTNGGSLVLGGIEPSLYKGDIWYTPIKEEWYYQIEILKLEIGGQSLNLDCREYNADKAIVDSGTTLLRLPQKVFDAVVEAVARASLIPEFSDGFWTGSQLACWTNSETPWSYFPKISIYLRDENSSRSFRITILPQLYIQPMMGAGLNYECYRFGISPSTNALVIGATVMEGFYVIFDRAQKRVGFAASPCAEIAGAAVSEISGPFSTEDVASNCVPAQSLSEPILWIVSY

Turning to `C[C@@]1(c2cc(-c3cncc(Cl)c3)ccc2F)Cc2ncncc2C(=N)N1` [Example 4, (7S)-7-[5-(5-chloropyridin-3-yl)-2-fluoro-phenyl]-7-methyl-7,8-dihydropyrido[4,3-d]pyrimidin-5(6H)-imine], the figures for the Ki in test [1] and in test [2] were 130 nM and 253 nM, respectively.

`COc1cccc(-c2ccc(F)c([C@]3(C)Cc4ncncc4C(=N)N3)c2)c1` [Example 5, (7S)-7-(4-fluoro-3′-methoxybiphenyl-3-yl)-7-methyl-7,8-dihydro-pyrido[4,3-d]pyrimidin-5(6H)-imine]: the values for the Ki in test [1] and in test [2] were 53.5 nM and 199 nM, respectively.

Turning to `C[C@@]1(c2cc(-c3cccc(C(F)(F)F)c3)ccc2F)Cc2ncncc2C(=N)N1` [Example 6, (7S)-7-[4-fluoro-3′-(trifluoromethyl)biphenyl-3-yl]-7-methyl-7,8-dihydropyrido[4,3-d]pyrimidin-5(6H)-imine], the inhibition constant (Ki) in test [1] is 549 nM; in test [2] it was 3040 nM.

`C[C@@]1(c2cc(-c3cncnc3)ccc2F)Cc2ncncc2C(=N)N1` [Example 7, (7S)-7-(2-fluoro-5-pyrimidin-5-ylphenyl)-7-methyl-7,8-dihydro-pyrido[4,3-d]pyrimidin-5(6H)-imine]: the Ki in test [1] was 3460 nM; in test [2], 771 nM.

Turning to `COc1cncc(-c2ccc(F)c([C@]3(C)Cc4ncncc4C(=N)N3)c2)c1` [Example 8, (7S)-7-[2-fluoro-5-(5-methoxypyridin-3-yl)phenyl]-7-methyl-7,8-dihydropyrido[4,3-d]pyrimidin-5(6H)-imine], the values for the Ki in test [1] and in test [2] were 87.8 nM and 225 nM, respectively.

As for `C[C@@]1(c2cc(-c3cncc(C#N)c3)ccc2F)Cc2ncncc2C(=N)N1` [Example 9, 5-{4-fluoro-3-[(7S)-5-imino-7-methyl-5,6,7,8-tetrahydropyrido[4,3-d]pyrimidin-7-yl]phenyl}pyridine-3-carbonitrile], the Ki in test [1] was 483 nM; in test [2], 601 nM.

Turning to `C[C@@]1(c2cc(-c3cccnc3)ccc2F)Cc2ncncc2C(=N)N1` [Example 10, (7S)-7-(2-fluoro-5-pyridin-3-ylphenyl)-7-methyl-7,8-dihydropyrido[4,3-d]pyrimidin-5(6H)-imine], the results for the Ki in test [1] and in test [2] were 1180 nM and 746 nM, respectively.

In the case of `C[C@@]1(c2cc(-c3cccc(C#N)c3)ccc2F)Cc2ncncc2C(=N)N1` [Example 11, 4′-fluoro-3′-[(7S)-5-imino-7-methyl-5,6,7,8-tetrahydropyrido[4,3-d]pyrimidin-7-yl]biphenyl-3-carbonitrile], the figures for the Ki in test [1] and in test [2] were 259 nM and 827 nM, respectively.

On to `CC#Cc1cncc(-c2ccc(F)c([C@]3(C)Cc4ncncc4C(=N)N3)c2)c1` [Example 12, (7S)-7-[2-fluoro-5-(5-prop-1-yn-1-ylpyridin-3-yl)phenyl]-7-methyl-7,8-dihydropyrido[4,3-d]pyrimidin-5(6H)-imine], for which the Ki was 20.2 nM in test [1] and 108 nM in test [2].

As for `C[C@@]1(c2sc(-c3cccc(C#N)c3)cc2Cl)Cc2ncncc2C(=N)N1` [Example 13, 3-{4-chloro-5-[(7S)-5-imino-7-methyl-5,6,7,8-tetrahydropyrido[4,3-d]pyrimidin-7-yl]thiophen-2-yl}benzonitrile], the Ki in test [1] is 15.1 nM; in test [2], 35.2 nM.

Consider `C[C@@]1(c2sc(-c3cncc(C#N)c3)cc2Cl)Cc2ncncc2C(=N)N1` [Example 14, 5-{4-chloro-5-[(7S)-5-imino-7-methyl-5,6,7,8-tetrahydropyrido[4,3-d]pyrimidin-7-yl]thiophen-2-yl}pyridine-3-carbonitrile], for which the Ki in test [1] was 31.6 nM; in test [2] it was 75.2 nM.

As for `C[C@@]1(c2sc(-c3cccc(-c4nnco4)c3)cc2Cl)Cc2ncncc2C(=N)N1` [Example 15, (7S)-7-{3-chloro-5-[3-(1,3,4-oxadiazol-2-yl)phenyl]thiophen-2-yl}-7-methyl-7,8-dihydropyrido[4,3-d]pyrimidin-5(6H)-imine], the Ki in test [1] was 37.3 nM; in test [2], 11.1 nM.

In the case of `C[C@@]1(c2sc(-c3ccc(F)c(C#N)c3)cc2Cl)Cc2ncncc2C(=N)N1` [Example 16, 5-{4-chloro-5-[(7S)-5-imino-7-methyl-5,6,7,8-tetrahydropyrido[4,3-d]pyrimidin-7-yl]thiophen-2-yl}-2-fluorobenzonitrile], the Ki in test [1] is 16.7 nM; in test [2], 36.4 nM.

Take `C[C@@]1(c2sc(-c3cc(F)cc(-c4nnco4)c3)cc2Cl)Cc2ncncc2C(=N)N1` [Example 17, (7S)-7-{3-chloro-5-[3-fluoro-5-(1,3,4-oxadiazol-2-yl)phenyl]thiophen-2-yl}-7-methyl-7,8-dihydropyrido[4,3-d]pyrimidin-5(6H)-imine]: the inhibitory constant (Ki) in test [1] is 21.6 nM; in test [2] it was 16.5 nM.

Take `C[C@]1(c2cc(-c3cccc(C#N)c3)cs2)NC(=N)c2cncnc2C1(F)F` [Example 18, 3-{5-[(7S)-8,8-difluoro-5-imino-7-methyl-5,6,7,8-tetrahydropyrido[4,3-d]pyrimidin-7-yl]thiophen-3-yl}benzonitrile]: the Ki in test [1] is 39.8 nM; in test [2], 81.5 nM.

`C[C@]1(c2sc(-c3cccc(C#N)c3)cc2Cl)NC(=N)c2cncnc2C1(F)F` [Example 19, 3-{4-chloro-5-[(7S)-8,8-difluoro-5-imino-7-methyl-5,6,7,8-tetrahydropyrido[4,3-d]pyrimidin-7-yl]thiophen-2-yl}benzonitrile]: the Ki in test [1] was 128 nM; in test [2] it was 246 nM.

For the molecule `C[C@]1(c2sc(-c3cccc(-c4nnco4)c3)cc2Cl)NC(=N)c2cncnc2C1(F)F` [Example 20, (7S)-7-{3-chloro-5-[3-(1,3,4-oxadiazol-2-yl)phenyl]thiophen-2-yl}-8,8-difluoro-7-methyl-7,8-dihydropyrido[4,3-d]pyrimidin-5(6H)-imine], the Ki in test [1] was 118 nM; in test [2], 33.3 nM.

Take `Cc1ncc2c(n1)C[C@@](C)(c1cc(-c3cccc(C#N)c3)cs1)NC2=N` [Example 23, 3-{5-[(7S)-5-imino-2,7-dimethyl-5,6,7,8-tetrahydropyrido[4,3-d]pyrimidin-7-yl]thiophen-3-yl}benzonitrile]: the figures for the Ki in test [1] and in test [2] were 87.9 nM and 151 nM, respectively.

For `Cc1ncc2c(n1)C[C@@](C)(c1sc(-c3cccc(C#N)c3)cc1Cl)NC2=N` [Example 24, 3-{4-chloro-5-[(7S)-5-imino-2,7-dimethyl-5,6,7,8-tetrahydropyrido[4,3-d]pyrimidin-7-yl]thiophen-2-yl}benzonitrile], the inhibitory constant (Ki) in test [1] was 28 nM; in test [2], 52.7 nM.

As to `Cc1ncc2c(n1)C[C@@](C)(c1sc(-c3cncc(C#N)c3)cc1Cl)NC2=N` [Example 25, 5-{4-chloro-5-[(7S)-5-imino-2,7-dimethyl-5,6,7,8-tetrahydropyrido[4,3-d]pyrimidin-7-yl]thiophen-2-yl}pyridine-3-carbonitrile], the figures for the Ki in test [1] and in test [2] were 62.4 nM and 125 nM, respectively.

For `Cc1ncc2c(n1)C[C@@](C)(c1sc(-c3cccc(-c4nnco4)c3)cc1Cl)NC2=N` [Example 26, (7S)-7-{3-chloro-5-[3-(1,3,4-oxadiazol-2-yl)phenyl]thiophen-2-yl}-2,7-dimethyl-7,8-dihydropyrido[4,3-d]pyrimidin-5(6H)-imine], the figures for the Ki in test [1] and in test [2] were 29.1 nM and 10.6 nM, respectively.
